Several values for one entry are separate records, joined by “and”; a condition that tells them apart may be missing. Equal values may be shown once. Inconclusive results and toxic doses are left out.

The subject of the assay is L1210 leukemia ip in BDF1 mice, survival T/C. Briefly: NCI In Vivo Anticancer Drug Screen. Data for tumor model L1210 Leukemia (intraperitoneal) in B6D2F1 (BDF1) mice. The following applies: endpoint: mean survival time, higher = longer survival. In short, it runs like this:
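Transplantable tumor model; survival measured in treated vs vehicle control mice. Value = treated/control.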

[1] abbreviates: dose: 100.0 mg/kg/injection, schedule: Q01DX009 (ip), vehicle: Klucel (hydroxypropylcellulose) (HPC).
The mark [2] stands for this setting: dose: 100.0 mg/kg/injection, schedule: Q04DX003 (ip), vehicle: Klucel (hydroxypropylcellulose) (HPC).
The mark [3] stands for this setting: dose: 200.0 mg/kg/injection, schedule: Q01DX009 (ip), vehicle: Klucel (hydroxypropylcellulose) (HPC).
Setting [4] is: dose: 200.0 mg/kg/injection, schedule: Q04DX003 (ip), vehicle: Klucel (hydroxypropylcellulose) (HPC).
[5] abbreviates: dose: 400.0 mg/kg/injection, schedule: Q04DX002 (ip), vehicle: saline with Tween-80.
[6] abbreviates: dose: 25.0 mg/kg/injection, schedule: Q04DX002 (ip), vehicle: Klucel (hydroxypropylcellulose) (HPC).

Turning to `NC(N)=N/N=C\CC(O)CO` (stereo not drawn), the T/C is 100 % of control (dose: 15.0 mg/kg/injection, schedule: Q01DX Z (ip), vehicle: methylcellulose (MC)); 103 % of control (dose: 30.0 mg/kg/injection, schedule: Q01DX Z (ip), vehicle: methylcellulose (MC)); 100 % of control (dose: 60.0 mg/kg/injection, schedule: Q01DX Z (ip), vehicle: methylcellulose (MC)); 97 % of control (dose: 60.0 mg/kg/injection, schedule: Q01DX Z (oral), vehicle: methylcellulose (MC)); 103 % of control (dose: 120.0 mg/kg/injection, schedule: Q01DX Z (ip), vehicle: methylcellulose (MC)); 94 % of control (dose: 120.0 mg/kg/injection, schedule: Q01DX Z (oral), vehicle: methylcellulose (MC)). Also, the T/C by setting is: (dose: 240.0 mg/kg/injection, schedule: Q01DX Z (oral), vehicle: methylcellulose (MC)) 88 % of control; (dose: 480.0 mg/kg/injection, schedule: Q01DX Z (oral), vehicle: methylcellulose (MC)) 86 % of control.
For `O=[N+]([O-])c1ccc(OCc2ccccc2)c([N+](=O)[O-])c1`, the T/C (dose: 100.0 mg/kg/injection, schedule: Q01DX009 (ip), vehicle: saline with Tween-80) is 90 % of control; the T/C (dose: 100.0 mg/kg/injection, schedule: Q04DX003 (ip), vehicle: saline with Tween-80) is 90 % of control; the T/C (dose: 200.0 mg/kg/injection, schedule: Q01DX009 (ip), vehicle: saline with Tween-80) is 87 % of control; the T/C (dose: 200.0 mg/kg/injection, schedule: Q04DX003 (ip), vehicle: saline with Tween-80) is 90 % of control; the T/C (dose: 400.0 mg/kg/injection, schedule: Q01DX009 (ip), vehicle: saline with Tween-80) is 87 % of control; the T/C (dose: 400.0 mg/kg/injection, schedule: Q04DX003 (ip), vehicle: saline with Tween-80) was 89 % of control.
Consider `Brc1ccc2[nH]cc(/C=N/Nc3nnc(N/N=C/c4c[nH]c5ccc(Br)cc45)c4ccccc34)c2c1`, for which, where the note is “dose: 50.0 mg/kg/injection, schedule: Q01DX001 (ip), vehicle: saline”, the T/C was 101 % of control.
Regarding `CN(C)C(=O)Oc1c(Cl)cccc1Cl`, the T/C reads like this: under setting [1], 92 % of control; under setting [2], 97 % of control; under setting [3], 97 % of control; under setting [4], 96 % of control; (dose: 400.0 mg/kg/injection, schedule: Q04DX003 (ip), vehicle: Klucel (hydroxypropylcellulose) (HPC)) 89 % of control.
For the compound `Nc1cc2ccc(O)cc2c2ccccc12`, the T/C was 109 % of control (dose: 25.6 mg/kg/injection, schedule: Q04DX002 (ip), vehicle: saline with Tween-80); 91 % of control (dose: 64.0 mg/kg/injection, schedule: Q04DX002 (ip), vehicle: saline with Tween-80); 94 % of control (dose: 160.0 mg/kg/injection, schedule: Q04DX002 (ip), vehicle: saline with Tween-80); 102 % of control under setting [5].
As to `Cc1cc(=O)[nH][nH]c1=O`, the T/C (dose: 50.0 mg/kg/injection, schedule: Q01DX009 (ip), vehicle: Klucel (hydroxypropylcellulose) (HPC)) was 97 % of control; the T/C (dose: 50.0 mg/kg/injection, schedule: Q04DX003 (ip), vehicle: Klucel (hydroxypropylcellulose) (HPC)) was 106 % of control; the T/C (dose: 100.0 mg/kg/injection, schedule: Q01DX001 (ip), vehicle: saline with Tween-80) is 95 % of control; the T/C under setting [1] was 105 % of control; the T/C under setting [2] was 103 % of control; the T/C (dose: 100.0 mg/kg/injection, schedule: Q04DX003 (ip), vehicle: saline) is 94 % of control. Moreover, the T/C was 92 % of control (dose: 200.0 mg/kg/injection, schedule: Q01DX001 (ip), vehicle: saline with Tween-80); 101 % of control under setting [3]; 101 % of control under setting [4]; 97 % of control (dose: 200.0 mg/kg/injection, schedule: Q04DX003 (ip), vehicle: saline); 100 % of control (dose: 400.0 mg/kg/injection, schedule: Q01DX001 (ip), vehicle: saline with Tween-80); 97 % of control (dose: 400.0 mg/kg/injection, schedule: Q04DX003 (ip), vehicle: saline).
Consider `Cc1ccc(/C=N\NC(=O)C(O)C(O)C(O)C(O)CO)cc1` (stereo not drawn), for which the T/C was 91 % of control (dose: 100.0 mg/kg/injection, schedule: Q04DX002 (ip), vehicle: saline with Tween-80); 91 % of control (dose: 200.0 mg/kg/injection, schedule: Q04DX002 (ip), vehicle: saline with Tween-80); 109 % of control under setting [5].
Consider `CCN(CC)Cc1ccccc1COC(=O)c1ccc(C)cc1`, for which the T/C reads like this: under setting [6], 97 % of control; (dose: 50.0 mg/kg/injection, schedule: Q04DX002 (ip), vehicle: Klucel (hydroxypropylcellulose) (HPC)) 97 % of control; (dose: 100.0 mg/kg/injection, schedule: Q04DX002 (ip), vehicle: Klucel (hydroxypropylcellulose) (HPC)) 94 % of control.
`COc1cc(NS(C)(=O)=O)ccc1Nc1c2ccc([N+](=O)[O-])cc2nc2c(C)cccc12`: the T/C is, setting by setting: (dose: 0.12 mg/kg/injection, schedule: Q01DX009 (ip), vehicle: saline) 122 % of control; (dose: 0.37 mg/kg/injection, schedule: Q04DX003 (ip), vehicle: saline) 113 % of control; (dose: 0.62 mg/kg/injection, schedule: Q01DX009 (ip), vehicle: saline) 112 % of control; (dose: 0.75 mg/kg/injection, schedule: Q04DX003 (ip), vehicle: saline) 161 % of control; (dose: 1.0 mg/kg/injection, schedule: Q01DX009 (ip), vehicle: saline) 166 % of control; (dose: 1.25 mg/kg/injection, schedule: Q01DX009 (ip), vehicle: saline) 121 % of control. In addition, the T/C reads like this: (dose: 1.5 mg/kg/injection, schedule: Q04DX003 (ip), vehicle: saline) 187 % of control; (dose: 2.5 mg/kg/injection, schedule: Q01DX009 (ip), vehicle: saline) 275 % of control; (dose: 5.0 mg/kg/injection, schedule: Q01DX009 (ip), vehicle: saline) 111 % of control and 277 % of control; (dose: 5.0 mg/kg/injection, schedule: Q01DX009 (sc), vehicle: saline) 165 % of control; (dose: 7.5 mg/kg/injection, schedule: Q04DX003 (ip), vehicle: saline) 218 % of control; (dose: 15.0 mg/kg/injection, schedule: Q01DX001 (ip), vehicle: other) 162 % of control. For the same compound, the T/C reads like this: (dose: 15.0 mg/kg/injection, schedule: Q01DX009 (ip), vehicle: saline) 103 % of control; (dose: 15.0 mg/kg/injection, schedule: Q04DX003 (ip), vehicle: saline) 162 % of control; (dose: 20.0 mg/kg/injection, schedule: Q01DX009 (ip), vehicle: saline) 86 % of control; (dose: 33.0 mg/kg/injection, schedule: Q01DX001 (ip), vehicle: other) 180 % of control; (dose: 50.0 mg/kg/injection, schedule: Q01DX001 (ip), vehicle: other) 177 % of control; (dose: 75.0 mg/kg/injection, schedule: Q01DX001 (ip), vehicle: other) 159 % of control. Besides, the T/C is 203 % of control (dose: 75.0 mg/kg/injection, schedule: Q01DX001 (ip), vehicle: saline); 173 % of control (dose: 113.0 mg/kg/injection, schedule: Q01DX001 (ip), vehicle: other); 98 % of control (dose: 150.0 mg/kg/injection, schedule: Q01DX001 (ip), vehicle: saline).
In the case of `Nc1ccccc1C1OCCO1`, the T/C runs as follows: (dose: 50.0 mg/kg/injection, schedule: Q01DX001 (ip), vehicle: carboxymethylcellulose (CMC)) 95 % of control; (dose: 100.0 mg/kg/injection, schedule: Q01DX001 (ip), vehicle: carboxymethylcellulose (CMC)) 95 % of control; (dose: 200.0 mg/kg/injection, schedule: Q01DX001 (ip), vehicle: carboxymethylcellulose (CMC)) 95 % of control; (dose: 400.0 mg/kg/injection, schedule: Q01DX001 (ip), vehicle: carboxymethylcellulose (CMC)) 101 % of control.
Turning to `CC(=O)OC(C#N)c1cccc([N+](=O)[O-])c1` (stereo not drawn), the T/C (dose: 6.25 mg/kg/injection, schedule: Q04DX002 (ip), vehicle: Klucel (hydroxypropylcellulose) (HPC)) was 97 % of control; the T/C (dose: 12.5 mg/kg/injection, schedule: Q04DX002 (ip), vehicle: Klucel (hydroxypropylcellulose) (HPC)) is 102 % of control; the T/C under setting [6] is 100 % of control and 92 % of control.
`COc1ccc(C(=O)/C=C/c2ccc(C(C)C)cc2)cc1`: the T/C reads like this: (dose: 75.0 mg/kg/injection, schedule: Q04DX003 (ip), vehicle: saline) 94 % of control; (dose: 150.0 mg/kg/injection, schedule: Q04DX003 (ip), vehicle: saline) 100 % of control; (dose: 300.0 mg/kg/injection, schedule: Q04DX003 (ip), vehicle: saline) 89 % of control.
